These results are taken from US20240115705A1, “Regulation of Butyrophilin subfamily 3 member A1 (BTN3A1, CD277)” (The J. Gladstone Institutes, a testamentary trust …, priority 2021, published 2024).

Assay [1] has as its system BTN3A1. The assay is described as follows: BTN3A expression genome-wide CRISPR knockout screen (FACS sort of surface BTN3A high/low cells). Format: cell-based, human.
Assay [2] deals with BTN2A1-BTN3A1-BTN3A2 cell surface complex on Daudi-Cas9 cells (human; Homo sapiens) (UniProt Q7KYR7). The assay is described as follows: flow cytometry, PE-TCR tetramer (160 nM) staining of WT Daudi-Cas9 cells treated 72 h with 80 µM Compound 991 against DMSO. A general note: In flow cytometry, cells or beads pass a laser one at a time.
Assay [3] has the same target. Put plainly: flow cytometry, PE-TCR tetramer (160 nM) staining of WT Daudi-Cas9 cells treated 72 h with 0.5 mM AICAR against untreated cells.
For assay [4], the system named is BTN3A. Put plainly: Inhibitor dose response, surface BTN3A by flow cytometry in WT Daudi-Cas9 cells. Format: cell-based, human. As to conditions: 72 hours, complete RPMI, vs vehicle. The protocol:
Daudi-Cas9 cells (180 μL) were seeded at 275,000 cells/mL in cRPMI in round-bottom 96-well plates. Twenty μL of zoledronate, rotenone (MedChemExpress), oligomycin A (Neta Scientific), FCCP (MedChemExpress), antimycin A (Neta Scientific), AICAR (Sigma), 2-DG (Sigma), Compound 991 (Selleck Chemical), A-769662 (Sigma), ethanol (vehicle), or DMSO (vehicle, at dilutions matching the treatment) at various concentrations were added to the cells. Plate edge wells were filled with 200 μL of sterile water or PBS. The cells were grown at 37° C. for 72 hours, and stained with APC-conjugated anti-human CD277 antibody (clone BT3.1, 1:50 dilution)(Miltenyi Biotec) and 7-AAD (1:150 dilution) (Tonbo). The cells were then analyzed on the Attune NxT flow cytometer.

The test system of assay [5] is Daudi-Cas9 cells. Put plainly: γδ TCR tetramer staining (G115 Vγ9Vδ2 TCR clone) of Daudi-Cas9 cells. The conditions noted are these: WT Daudi-Cas9 cells, 72 hours. Format: cell-based, human. The text has this:
The G115 Vγ9Vδ2 TCR clone tetramer was generated using the following methods. The G115 γ-[…] chain sequence (Davodeau et al. J. Immunol. 151, 1214-1223 (1993)) was cloned into the pAcGP67A vector with a C-terminal acidic zipper, and the G115 δ-chain sequence (Davodeau et al. (1993)) as cloned into the pAcGP67A vector with a C-terminal AviTag followed by a basic zipper. Zippers stabilized the TCR complex. The TCR was expressed in the High Five baculovirus insect-cell expression system and purified via affinity chromatography over a Ni-NTA column. TCRs were biotinylated and biotinylation was confirmed using a TrapAvidin SDS-PAGE assay. The G115 TCR was then further purified using size-exclusion chromatography (Superdex200 100/300 GL column, GE Healthcare) and purity was confirmed via SDS-PAGE. Tetramers were generated by incubating biotinylated TCR with streptavidin conjugated to the PE fluorophore.
Daudi-Cas9 KO cells were analyzed 13 and 14 days post-lentiviral transduction. WT Daudi-Cas9 cells were analyzed after being cultured for 72 hours with 0.5 mM AICAR, 80 μM Compound 991, DMSO (vehicle control at the concentration matching Compound 991), or nothing. […] Stained cells were analyzed on the Attune NxT flow cytometer.

Assay [6] relates to BTN2A1 transcripts. The assay is described as follows: RT-qPCR of drug-treated Daudi-Cas9 cells, BTN2A1. Format: cell-based, human. As to conditions: 80 PM, 72 hours, normalized to ACTB and DMSO. The method, then: (§1) For measurement on Daudi-Cas9 KOs, samples were collected at 13 days after lentiviral transduction. For measurements on drug-treated WT Daudi-Cas9 cells, 180 μL of Daudi-Cas9 cells were seeded in a round-bottom 96-well plate at 275,000 cells/mL. All surrounding wells were filled with 200 μL of sterile PBS or water. With four replicates per treatment, cells were treated with 20 μL of AICAR (final concentration 0.5 mM), Compound 991 (final concentration 80 PM), DMSO, or water. The cells were collected for RT-qPCR measurements after 72 hours of incubation. RNA was extracted from approximately 70,000 cells per sample using the Quick-RNA 96 Kit (Zymo Research) or Direct-zol RNA Microprep Kit (Zymo) according to the manufacturer's protocol without the optional on-column DNase I treatment. According to the manufacturer's protocol, 1 μL of RNA was immediately processed using the Maxima First Strand cDNA Synthesis Kit for RT-qPCR with the dsDNase treatment (Thermo Fisher). Two cDNA synthesis reactions, in addition to a reverse transcriptase minus (RT−) negative control reaction, were performed for each biological replicate. […] Ct values across the three technical replicates for each sample were assessed for significant outliers resulting from technical failures (any samples in triplicate with a standard deviation above 0.2 were assessed) and subsequently averaged. […]
In general terms: In qPCR the cycle at which signal appears reflects the starting amount.

Assay [7] concerns BTN3A1 transcripts. The assay is described as follows: RT-qPCR of drug-treated Daudi-Cas9 cells, BTN3A1. Type of assay: cell-based, human. As to conditions: 80 PM, 72 hours, normalized to ACTB and DMSO. The method, then:
as §1

Assay [8] has as its system BTN3A2 transcripts. The assay is described as follows: RT-qPCR of drug-treated Daudi-Cas9 cells, BTN3A2. Type of assay: cell-based, human. The conditions noted are these: 80 PM, 72 hours, normalized to ACTB and DMSO. The method, then:
as §1

In assay [9] the test system is BTN3A. The assay is described as follows: Compound C dose response in combination with AICAR or OXPHOS inhibition, surface BTN3A. Further details: BTN3A levels vs vehicle control: dose or concentration left out as unconfirmed. Type of assay: cell-based, human. The protocol: Daudi-Cas9 cells (170 μL) were seeded at 292,000 cells/mL in cRPMI in round-bottom 96-well plates. Ten μL of Compound C (Abcam) were added to all the cells at various concentrations. At indicated concentrations, 20 μL of rotenone, oligomycin A, FCCP, 2-DG, AICAR, or cRPMI (control) were added to the wells that received Compound C. Ten μL of DMSO at dilutions matching Compound C and 20 μL of cRPMI were added to the DMSO-only vehicle control wells. Plate edge wells were filled with 200 μL of sterile water or PBS. The cells were grown at 37° C. for 72 hours, stained with APC-conjugated anti-human CD277 antibody (clone BT3.1, 1:50 dilution) (Miltenyi Biotec) and 7-AAD (1:150 dilution) (Tonbo), and analyzed on the Attune NxT flow cytometer.

Sequence of UniProt Q7KYR7 (Q7KYR7 29-527, chain 1 of 3): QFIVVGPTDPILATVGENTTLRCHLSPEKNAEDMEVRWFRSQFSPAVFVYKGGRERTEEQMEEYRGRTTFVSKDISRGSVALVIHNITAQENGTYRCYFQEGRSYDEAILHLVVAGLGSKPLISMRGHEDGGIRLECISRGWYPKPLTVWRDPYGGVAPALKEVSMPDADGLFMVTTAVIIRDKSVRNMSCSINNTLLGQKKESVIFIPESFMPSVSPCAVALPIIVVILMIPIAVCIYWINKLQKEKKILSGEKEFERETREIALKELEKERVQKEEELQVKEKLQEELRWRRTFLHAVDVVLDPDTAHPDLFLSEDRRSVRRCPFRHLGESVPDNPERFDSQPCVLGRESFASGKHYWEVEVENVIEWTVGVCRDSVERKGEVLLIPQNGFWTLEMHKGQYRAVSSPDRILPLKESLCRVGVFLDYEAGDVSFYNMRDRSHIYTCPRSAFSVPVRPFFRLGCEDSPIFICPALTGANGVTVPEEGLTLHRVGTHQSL
Sequence of UniProt Q7KYR7 (chain, as listed by the source, chain 2 of 3): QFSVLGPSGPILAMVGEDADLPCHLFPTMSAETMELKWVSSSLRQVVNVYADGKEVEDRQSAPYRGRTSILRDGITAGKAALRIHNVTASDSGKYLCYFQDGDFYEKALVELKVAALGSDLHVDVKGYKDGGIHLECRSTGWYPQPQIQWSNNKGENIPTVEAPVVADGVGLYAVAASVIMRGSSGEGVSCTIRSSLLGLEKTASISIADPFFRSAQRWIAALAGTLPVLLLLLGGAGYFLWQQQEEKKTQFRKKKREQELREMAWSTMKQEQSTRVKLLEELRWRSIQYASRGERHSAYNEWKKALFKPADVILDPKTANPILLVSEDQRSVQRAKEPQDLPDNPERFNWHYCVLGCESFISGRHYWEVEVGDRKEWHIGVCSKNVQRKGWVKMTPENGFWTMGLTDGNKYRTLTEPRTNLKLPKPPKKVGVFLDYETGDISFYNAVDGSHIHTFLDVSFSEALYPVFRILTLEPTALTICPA
Sequence of UniProt Q7KYR7 (chain, as listed by the source, chain 3 of 3): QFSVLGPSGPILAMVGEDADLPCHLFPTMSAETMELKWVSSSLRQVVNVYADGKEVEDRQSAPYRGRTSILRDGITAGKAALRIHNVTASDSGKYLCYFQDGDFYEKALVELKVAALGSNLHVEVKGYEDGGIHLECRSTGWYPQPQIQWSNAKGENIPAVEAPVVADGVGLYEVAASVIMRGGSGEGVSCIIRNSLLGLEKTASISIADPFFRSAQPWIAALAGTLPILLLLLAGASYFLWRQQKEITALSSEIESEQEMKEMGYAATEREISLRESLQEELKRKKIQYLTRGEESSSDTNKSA

In the case of RPIA, the “Log2 Fold Change” value in [1] (gene knockout in Daudi cells expressing Cas9, genome wide CRISPR knockout screen sorted on surface BTN3A1, Table 1 Negative Regulators of BTN3A1) is −1.4533.

For the compound COQ2, the “Log2 Fold Change” value in assay [1] (Table 2, positive regulators of BTN3A1, gene knockout in Daudi-Cas9 cells, FACS sort on surface BTN3A1 (anti-BTN3A1 clone BT3.1), three replicates) was 1.1343.

In assay [2], “PE-conjugated Vγ9Vδ2 TCR (clone G115) tetramer (from UniProt P22629 37-163)” showed a fold tetramer staining against vehicle control-treated cells of 5 fold. This compound gave a percent increase of tetramer staining in assay [3] of 40 to 80%.

As for `Cc1ccc(Oc2nc3cc(-c4ccc5c(ccn5C)c4)c(Cl)cc3[nH]2)cc1C(=O)O` [Compound 991], the “surface BTN3A (MFI)” value in [4] is reported as “Upregulation of surface BTN3A”. For the same compound, the “staining with G115 Vγ9Vδ2 TCR tetramer compared to vehicle control-treated cells” value in [5] (80 μM) is reported as “about five times higher”. Besides, the “BTN2A1 transcript level by qPCR” value in assay [6] is on record as “transcriptionally upregulated”. Further, in assay [7], the “BTN3A1 transcript level by qPCR” value is recorded as “transcriptionally upregulated”. Moreover, the “BTN3A2 transcript level by qPCR” value in assay [8] is “transcriptionally upregulated”.

Take `NC(=O)c1ncn([C@@H]2O[C@H](CO)[C@@H](O)[C@H]2O)c1N` [AICAR, N^1-(β-D-Ribofuranosyl)-5-aminoimidazole-4-carboxamide]: the “surface BTN3A (MFI)” value in assay [4] is “dramatic increase in surface BTN3A”. Further, in [5] (0.5 mM), the “increase in G115 Vγ9Vδ2 TCR tetramer staining” value was 40-80%.

As for `c1cc(-c2cnn3cc(-c4ccc(OCCN5CCCCC5)cc4)cnc23)ccn1` [Compound C], in assay [9] (WT Daudi-Cas9 cells co-treated with Compound C, 72 hours), the “BTN3A upregulation caused by OXPHOS inhibition (rotenone, oligomycin, FCCP) or glycolysis inhibition (2-DG)” value is “neutralized”. In addition, in assay [9] (WT Daudi-Cas9 cells co-treated with increasing amounts of Compound C and AICAR, 72 hours), the “AICAR-induced BTN3A upregulation” value is given as “decreased the AICAR-induced BTN3A upregulation”. In addition, the “BTN3A levels vs vehicle control” value in assay [9] (co-treated with AICAR, Compound C) is recorded as “falling well below those observed in the vehicle control”.
